Measured values as given in ChEMBL document CHEMBL3217712, “Improved biodistribution, pharmacokinetics and photodynamic efficacy using a new photostable sulfonamide bacteriochlorin” (Medchemcomm, 2012).

Test system: S91
Assay: Photodynamic efficacy against mouse Cloudman S91 cells allografted in DBA mouse assessed as time of tumor growth delay at 2 mg/kg, iv followed by irradiated with 70 mW cm'-2 diode laser light for 25 mins
Type: functional

`O=S(=O)(O)c1ccc(Cl)c(-c2c3nc(c(-c4cc(S(=O)(=O)O)ccc4Cl)c4ccc([nH]4)c(-c4cc(S(=O)(=O)O)ccc4Cl)c4nc(c(-c5cc(S(=O)(=O)O)ccc5Cl)c5ccc2[nH]5)CC4)C=C3)c1` gave a Time of 29 days.
